In patent publication US11781984B2, “Fluorescent method to quantify copper or platinum based on catalysis” (University of Pittsburgh—Of the Commonwealth System of …, priority 2018, dated 2023):
Where a name gives a salt, the structure may show the parent alone.

Legend:
[1] = Depropargylation of PPE with various metals and ligands (combinatorial screen); settings: Cu^+ and Cu^2+ in the presence of ligand, 1.2 M pH 7.0 phosphate buffer/DMSO
Experimental: All fluorescence measurements were obtained using a Modulus II Microplate Multimode Reader. Fluorescence was measured after exciting samples with 490 nm light and emission was measured between 510-570 nm. All fluorescence measurements were obtained at room temperature. Metals and ligands were combinatorially screened in the presence of Propargyl Pittsburgh Green ether (PPE) to determine which metals and ligands facilitated the depropargylation reaction. Solid AgNO3 and Sr(NO3)2 were dissolved in 5% HNO3 (TraceMetal Grade) to a final concentration of 10 mM. AuCl3, CdCl2, CeCl3, COCl2, CuCl, CuCl2, […]7, FeSO4, FeCl3, HgCl2, MgCl2, KMnO4 NiCl2, Pb(OAc)4, Rh(OAc)2, RhCl3, RuCl3, and ZnCl2 were dissolved in 3% HCl (TraceMetal Grade) to a final concentration of 10 mM. Wilkinson's catalyst, as a source of Rh(I), was dissolved in DMSO to a final concentration of 5 mM. RuCl2(p-cymene) dimer was dissolved in DMSO to a final concentration of 5 mM (10 mM with respect to the monomer). Standard solutions of 1000 ppm Pt^2+ in 3% HCl and 1000 ppm Pd^2+ in 5% HNO3 were used. […] A mixture containing 1.2 M pH 7.0 phosphate buffer (177.2 mL), DMSO (19.42 mL), and 8.0 mM PPE (556 μL) was separated into 37 aliquots. […] These solutions containing the probe and ligand (180 μL), termed working solutions, were transferred to a black 96-well plate. The metal solutions were diluted to 10 μM using ultrapure water as the diluent. […] To analyze the data, each working solution was normalized, with the no metal sample normalized to 1.

[2] = Reactivity of strongly-ligated platinum drugs with APE and TFPP; settings: 10 μM drug, 45° C., 1 h
Experimental: We incubated carboplatin and oxaliplatin with APE and TFPP. […] Carboplatin and oxaliplatin were dissolved in DMSO. The solutions were diluted to a concentration of 100 μM in DMSO. 100 μM platinum drugs in DMSO or water (20 μL) were transferred to the wells of a black 96-well plate. The working solution was prepared by the addition of 1.2 M phosphate pH 7.8 buffer (17.60 mL), DMSO (1.43 mL), 800 μM APE in DMSO (550 μL), and 40 mM TFPP in 250 ppm BHT in DMSO (220 μL). The working solution (180 μL) was then transferred to the wells and the initial fluorescence was measured. The plate was then covered and allowed to incubate in a 45° C. oven for 1 h before the fluorescence was measured again.

[3] = Reactivity of platinum drugs after pre-incubation with LiCl or NaCl; settings: 10 μM drug, 50 mM LiCl or NaCl, 20 μM APE, 400 μM TFPP, 25° C., 100 min
Experimental: We pre-incubated the drugs with either LiCl or NaCl before adding APE and TFPP.0 or 100 μM cisplatin, carboplatin, or oxaliplatin in DMSO (100 μL) were added to centrifuge tubes. To these tubes, 0 or 1 M LiCl or NaCl in water (100 μL) was added. The solutions were then allowed to incubate at room temperature for 4 h. The working solution was made by the addition of 1.2 M phosphate pH 7.8 buffer (8.86 mL), DMSO (721 μL), 800 μM APE in DMSO (278 μL), and 20 mM TFPP in 250 ppm BHT in DMSO (111 μL). The working solution (180 μL) was then transferred to the wells of a black 96-well plate. The platinum drugs (20 μL) were then transferred to the wells and the fluorescence was measured every 5 min for 100 min.

[4] = Deallylation of APE with various metals and ligands (combinatorial screen); settings: for facilitation of the deallylation of APE: ligand screen with APE
Experimental: In separate vials, 20-30 mg of each ligand was dissolved in DMSO containing 250 ppm butylated hydroxyl toluene (BHT) to a final concentration of 20 mM ligand. Working solutions containing the ligands were prepared by mixing 1.23 M pH 7 phosphate buffer (177.2 mL), DMSO (19.424 mL), and 8.0 mM APE in DMSO (556 μL). Aliquots of this mixture (4.944 mL) were placed into 15 mL conical tubes and 20 mM ligands and 250 ppm BHT in DMSO (55.5 μL) were added. […] Metals used in the experiments included AgNO3, AuCl3, CdCl2.2.5H2O, CeCsl3.3H2O, CoCl2.6H2O, […]7, CuCl, CuCl2.2H2O, FeSO4, FeCl3, HgCl2, MgCl2.6H2O, K2MnO4, NiCl2, Pb(OAc)2, RhCl(PPh3)3, Rh(Oac)2 dimer, […] (45.5% Rh), dichloro(p-cymene)ruthenium(II), RuCl3, Sr(NO3)2, and ZnCl2. In separate vials, 10 mM metal solutions were prepared by mixing 5-20 mg of the listed metals with dilute acid; all metals were dissolved in 3% HCl (TraceMetal Grade), with the exception of AgNO3, Sr(NO3)3, RhCl(PPh3)3, and dichloro(p-cymene)ruthenium(II). AgNO3 and Sr(NO3)3 were dissolved in 5% HNO3 (TraceMetal Grade); RhCl(PPh3)3 and dichloro(p-cymene)ruthenium(II) were dissolved in DMSO and the working solutions were adjusted to account for the solvent. The metal solutions were then diluted to 100 μM in 3% HCl or 5% HNO3 (TraceMetal Grade) or DMSO. […] For Pd, the 9.4 mM standard (21 μL) was added to 5% HNO3 (1.98 mL, TraceMetal Grade). For Pt, the 5.1 mM standard (39 μL) was added to 3% HCl (1.96 mL, TraceMetal Grade). To perform the assay, 10 μM metal solutions (20 μL) were added to the prepared working solutions (180 μL). The fluorescence was measured immediately and again after allowing the reaction to proceed for 1 h and 2 h at 25° C.

[5] = Selectivity of optimized APE/TFPP method for platinum over palladium; settings: optimized salts, pH and TFPP concentration; 10 μM metals, 20 μM APE, 200 μM TFPP, pH 7.8
Experimental: FIG. 21: Relative reactivities of metals (10 μM) to APE with TFPP. 20 μM APE, 200 μM TFPP, pH 7.8, 25° C., 10 min, n=3.
Increased temperatures accelerated the deallylation, opening an avenue for even lower detection limits if necessary.

HeLa cells = assay: Fluorescence imaging of platinum in live HeLa cells; assay type: cell-based; settings: 1 μM APE, 200 μM TFPP, 1 mM K2PtCl4, 20 min
Experimental: We then applied this method for cellular imaging. HeLa cells were seeded in 35-mm dishes and were incubated overnight in an incubator (37° C., 5% CO2 atmosphere) in DMEM supplemented with 10% bovine calf serum and 1% penicillin/streptomycin. Cells were loaded with APE and TFPP to a final concentration of 1 μM and 200 μM, respectively, in 1% DMSO in DMEM for 20 min. Following this, cells were washed twice with ˜2 mL HBSS. HBSS was used as the imaging medium. Brightfield images were taken, as well as the initial fluorescence image. Immediately after taking the first fluorescence image, a solution of K2PtCl4 in PBS was added to a final concentration of 1 mM.
Cellular images were taken using an Olympus IX81 microscope with a 10× objective. Brightfield images were taken using a 3 ms exposure. Fluorescence images were taken as a time series, with an image taken every 30 s for 20 min, using an 850 ms exposure. Images were processed using ImageJ software; background fluorescence was removed from the fluorescence images using a rolling ball radius of 50.0 pixels.

[6] = Detection of platinum in different oxidation states (APE/TFPP); settings: APE and TFPP, 25° C.
Experimental: To determine whether our method depends on the oxidation state of platinum, we incubated the solution of APE and TFPP with a platinum(II) standard, K2PtCl4, K2PtCl6, or cisplatin for 10 min. Cisplatin (6.1 mg; 20 μmol) was dissolved in DMSO and diluted to a concentration of 10 μM. K2PtCl4 (5.6 mg; 13 μmol) and K2PtCl6 (6.8 mg; 14 μmol) were dissolved in water to a concentration of 10 μM. The Pt standard was diluted with ultrapure water to a concentration of 10 μM. The working solution was prepared by adding 1.2 M pH 7 phosphate buffer (8.86 mL), 800 μM APE in DMSO (278 μL), 20 mM TFPP and 250 ppm BHT in DMSO (111 μL), and DMSO (721 μL) in a 15-mL conical tube. The working solution (180 μL) and the Pt solutions (20 μL) were transferred in this order to black round-bottom 96-well plates. The reaction mixture was incubated at 25° C. for 1 h before the fluorescence was measured and reported. Average values and standard deviations are shown in FIG. 23 and “no Pt” is normalized to 1.

[7] = Distribution of copper between water and CHCl3 in the presence of DMAPPP; assay type: physicochemical; settings: pH 7 buffer / CHCl3 biphasic system, DMAPPP present vs absent
Experimental: We questioned whether copper ions would be excreted from cells when bound to DMAPPP. As a model system, CuSO4 was suspended in a biphasic system (pH 7 buffer and CHCl3) in the presence or absence of DMAPPP. Three suspensions were prepared from these: 10 mM DMAPPP in CHCl3 (1.0 mL) and 5 mM CuSO4 in 1 mM phosphate pH 7.0 buffer (1.0 mL), CHCl3 (1.0 mL) and 5 mM CuSO4 in 1 mM phosphate pH 7.0 buffer (1.0 mL), and 10 mM DMAPPP in CHCl3 (1.0 mL) and 1 mM phosphate pH 7.0 buffer (1.0 mL). The suspensions were vortexed to ensure proper partitioning of the CuSO4 and DMAPPP. Aliquots of the aqueous and organic layers of each suspension (100 μL each) were then taken and evaporated. The residue following evaporation was resuspended in HBSS (100 μL).
The working solution was prepared by the addition of 50 mM pH 8.5 borate buffer (2.96 mL), EtOH (500 μL), 800 μM PPE in EtOH (100 μL), and 10 mM DMAPPP in DMSO (40 μL). The working solution (180 μL) was transferred to the wells of a black 96-well plate. The resuspended samples (20 μL) were then added to the wells and the fluorescence was measured.

[8] = Pt^2+ and APE in the presence of ligand

## O=S(=O)([O-])c1cccc(P(c2ccccc2)c2ccccc2)c1.[Na+] [Compound 2, 3-(diphenylphosphino)bezenesulfonic acid sodium salt]
[1]
  fluorescence signals (depropargylation of PPE): significantly increased the fluorescence signals

## O=C1[O][Pt]2([NH][C@@H]3CCCC[C@H]3[NH]2)[O]C1=O [oxaliplatin]
[2]
  reaction with APE and TFPP compared to no platinum: little reaction
[3]
  effect of pre-incubation with LiCl or NaCl on detection: did not improve the detection

## Cc1ccc(P(c2ccc(C)cc2)c2ccc(C)cc2)cc1 [Compound 18, tri-p-tolylphosphine]
[1]
  fluorescence signals (depropargylation of PPE): significantly increased the fluorescence signals
[4]
  facilitation of the deallylation of APE: facilitated the deallylation

## O=S(=O)(O)c1cccc(P(c2cc(C(F)(F)F)cc(C(F)(F)F)c2)c2cccc(S(=O)(=O)O)c2)c1 [Compound 12, bis(3-sulfonatophenyl)(3,5-di-trifluoromethylphenyl)phosphine disodium salt]
[4]
  facilitation of the deallylation of APE: facilitated the deallylation

## Fc1ccc(P(c2ccc(F)cc2)c2ccc(F)cc2)cc1 [Compound 13, tris(4-fluorophenyl)phosphine]
[4]; 200 μM TFPP
  rate relative to previously reported Pt-Ph3P catalysis: 4 times
[4]; [8]
  fluorescence signal relative to background signal: 40 fold
  fluorescence signal relative to the corresponding signal from Pd^2+: 10 fold
[4]
  facilitation of the deallylation of APE: facilitated the deallylation
[5]
  selectivity for platinum over palladium: 14 times

## COc1ccc(P(c2ccc(OC)cc2)c2ccc(OC)cc2)cc1 [Compound 15, tris(4-methoxyphenyl)phosphine]
[1]
  fluorescence signals (depropargylation of PPE): significantly increased the fluorescence signals
[4]
  facilitation of the deallylation of APE: did not facilitate the deallylation

## FC(F)(F)c1ccc(P(c2ccc(C(F)(F)F)cc2)c2ccc(C(F)(F)F)cc2)cc1 [Compound 19, tris(4-trifluoromethylphenyl)phosphine]
[4]
  facilitation of the deallylation of APE: did not facilitate the deallylation

## c1ccc(P(c2ccccc2)c2ccccc2)cc1 [Compound 34, triphenylphosphine]
[1]
  fluorescence signals (depropargylation of PPE): significantly increased the fluorescence signals

## N.N.O=C([O-])C1(C(=O)[O-])CCC1.[Pt+2] [carboplatin]
[2]
  reaction with APE and TFPP compared to no platinum: little reaction
[3]
  effect of pre-incubation with LiCl or NaCl on detection: increased fluorescence

## allyl Pittsburgh Green ether [APE]
HeLa cells
  increase of fluorescence intensity in cells: 1.5 fold

## N.N.[Cl][Pt][Cl] [cisplatin]
[6]
  reactivity of platinum species (fluorescence signal): exhibited reactivity, although it was lower than the inorganic species
[3]
  effect of pre-incubation with LiCl or NaCl on detection: did not improve the detection

## CN(C)c1ccc(P(c2ccccc2)c2ccccc2)cc1 [Compound 9, 4-(dimethylamino)phenyl-diphenylphosphine]
[1]
  fluorescence signals (depropargylation of PPE): greatly increased the fluorescence signals
[7]
  copper concentration in the organic phase: did not increase
